According to patent US20240199608A1 (Eli Lilly and Company, priority 2022, published 2024):

Biological target: T1, Human AhR (Homo sapiens, UniProt P35869)
T1 construct: expressed in transfected cells
T1 sequence (P35869 11-848): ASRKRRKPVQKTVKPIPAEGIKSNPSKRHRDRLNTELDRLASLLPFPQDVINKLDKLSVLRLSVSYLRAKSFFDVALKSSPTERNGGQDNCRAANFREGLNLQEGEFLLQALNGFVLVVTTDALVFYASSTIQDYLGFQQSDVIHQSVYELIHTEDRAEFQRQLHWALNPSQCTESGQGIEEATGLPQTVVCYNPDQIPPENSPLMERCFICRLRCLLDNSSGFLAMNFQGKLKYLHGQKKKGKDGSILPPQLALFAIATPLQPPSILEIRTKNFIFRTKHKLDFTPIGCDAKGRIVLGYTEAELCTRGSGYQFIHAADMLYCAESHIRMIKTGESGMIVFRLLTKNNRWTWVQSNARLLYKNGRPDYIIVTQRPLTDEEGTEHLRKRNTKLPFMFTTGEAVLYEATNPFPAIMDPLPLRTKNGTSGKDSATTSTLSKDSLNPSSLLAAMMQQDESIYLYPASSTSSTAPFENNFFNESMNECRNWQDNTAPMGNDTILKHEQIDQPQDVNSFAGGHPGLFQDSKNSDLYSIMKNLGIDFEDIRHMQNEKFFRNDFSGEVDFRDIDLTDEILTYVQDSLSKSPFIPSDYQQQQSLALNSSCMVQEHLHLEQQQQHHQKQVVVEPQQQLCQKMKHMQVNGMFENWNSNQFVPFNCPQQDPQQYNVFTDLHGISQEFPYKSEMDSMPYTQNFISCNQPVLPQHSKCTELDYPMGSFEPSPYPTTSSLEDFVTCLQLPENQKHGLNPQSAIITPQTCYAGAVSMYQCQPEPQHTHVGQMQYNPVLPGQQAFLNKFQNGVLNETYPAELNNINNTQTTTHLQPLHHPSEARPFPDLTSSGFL
Test: hAHR Nuclear Translocation Assay
Assay type: cell-based
Details: AhR-EGFP nuclear translocation in Jump-In T-REx HEK293 cells, 45 minutes incubation; class symbols; read-out: Rel EC50
Description: The purpose of this assay is to measure the ability of compounds to bind to, activate, and induce the translocation of AhR into the nucleus of a cell for transcription. Stable cell lines were established using Jump-InTM T-RExTM HEK293 Retargeting Kit (Life Technologies). Human AhR cDNA was cloned into the pJTI R4 CMV-TO EGFP vector. The EGFP was cloned to the C-terminal of AHR to form AhR-EGFP chimera. The pJTI R4 CMV-TO AhR-EGFP vector was transfected using FuGENE® HD into Jump-InTM T-RExTM HEK293 cells. Transfected cells were selected using 2.5 mg/ml G418 for 10 to 14 days, then expanded, harvested, and suspended in freeze media (FBS with 8% DMSO) at 2×10^7 cells/ml, and aliquots were stored in liquid nitrogen. One day before the assay date, cells were thawed and resuspended in DMEM with 5% FBS in the presence of 1 μg/ml Doxycycline and plated into ploy-L-Lysine coated […]-384 ULTRA Microplates (Perkin Elmer) at 12,000 to 15,000 cells per well and incubated at 37° C. and 5% CO2 overnight. On the assay date, compound was serially diluted (1:2) into 384-well nunc plates with DMSO using acoustic dispensing (ECHO®). The dose response was a 20-point curve. […] The culture media was damped and 25 μl of DMEM plus 0.1% BSA was added, then 25 μL of compound in DMEM plus 0.1% BSA was added into cell plates. Cells were incubated compounds at 37° C. and 5% CO2 for 45 minutes. The final DMSO concentration was 0.2%. The media was damped after 45 minutes incubation. The cells were fixed with 40 μl of cold MeOH (-20° C.) for 20 minutes. The MeOH was damped and 50 μL of DPBS containing 1 μg/mL Hochst was added into the cell plates. The intensity of EGFP was quantitated by using Opera PHENIX® or OPERETTA® high content image system (Perkin Elmer) with 20× Water Objective and five field per well. The ratio of EGFP fluorescent intensity in nuclear over cytosol was analyzed using a 4-parameter nonlinear logistic equation to determine the potency of AhR agonists.

Row | Structure (SMILES) | EC50 [nM]
1 | CC1CCc2c1cc(C(=O)Nc1ccon1)c1nncn21 (single isomer, unassigned) [Example 32] | 1 to 10
2 | CCC1CCc2c1cc(C(=O)Nc1ncc(F)cn1)c1nncn21 (single isomer, unassigned) [Example 56, 6-Ethyl-N-(5-fluoropyrimidin-2-yl)-7,8-dihydro-6H-cyclopenta[e][1,2,4] triazolo[4,3-a]pyridine-4-carboxamide] | 1 to 10
3 | CC(C)c1nnc2c(C(=O)Nc3ncc(F)cn3)cc3c(n12)CCC3C (single isomer, unassigned) [Example 54, N-(5-Fluoropyrimidin-2-yl)-1-isopropyl-6-methyl-7,8-dihydro-6H-cyclopenta[e][1,2,4] triazolo[4,3-a]pyridine-4-carboxamide] | > 50
4 | CC1CCc2c1cc(C(=O)Nc1ccc(C(F)(F)F)cn1)c1nncn21 (single isomer, unassigned) [Example 34, 6-Methyl-N-(5-(trifluoromethyl)95yridine-2-yl)-7,8-dihydro-6H-cyclopenta[e][1,2,4] triazolo[4,3-a]pyridine-4-carboxamide] | 1 to 10
5 | CC1CCc2c1cc(C(=O)Nc1ccno1)c1nncn21 (single isomer, unassigned) [Example 44, N-(Isoxazol-5-yl)-6-methyl-7,8-dihydro-6H-cyclopenta[e][1,2,4] triazolo[4,3-a]pyridine-4-carboxamide] | > 50
6 | O=C(Nc1ncc(F)cn1)c1cc2c(n3cnnc13)CCC2C1CCC1 (single isomer, unassigned) [Example 65, 6-Cyclobutyl-N-(5-fluoropyrimidin-2-yl)-7,8-dihydro-6H-cyclopenta[e][1,2,4] triazolo[4,3-a]pyridine-4-carboxamide] | 1 to 10
7 | CC1CCc2c1cc(C(=O)Nc1ncco1)c1nncn21 (single isomer, unassigned) [Example 31, 6-Methyl-N-(oxazol-2-yl)-7,8-dihydro-6H-cyclopenta[e][1,2,4] triazolo[4,3-a]pyridine-4-carboxamide] | 10 to 50
8 | O=C(Nc1ncc(F)cn1)c1cc2c(n3cnnc13)CCC2C1CC1 (single isomer, unassigned) [Example 67, 6-Cyclopropyl-N-(5-fluoropyrimidin-2-yl)-7,8-dihydro-6H-cyclopenta[e][1,2,4] triazolo[4,3-a]pyridine-4-carboxamide] | 1 to 10
9 | COc1ccccc1NC(=O)c1cc2c(n3cnnc13)CCC2C (single isomer, unassigned) [Example 20, N-(2-methoxyphenyl)-6-methyl-7,8-dihydro-6H-cyclopenta[e][1,2,4] triazolo[4,3-a]pyridine-4-carboxamide] | > 50
10 | CC1CCc2c1cc(C(=O)Nc1nccs1)c1nncn21 (single isomer, unassigned) [Example 24, 6-Methyl-N-(thiazol-2-yl)-7,8-dihydro-6H-cyclopenta[e][1,2,4] triazolo[4,3-a]pyridine-4-carboxamide] | 1 to 10
11 | CC(C)c1nnc2c(C(=O)Nc3ncc(F)cn3)cc3c(n12)CCC3C (single isomer, unassigned) [Example 55, N-(5-Fluoropyrimidin-2-yl)-1-isopropyl-6-methyl-7,8-dihydro-6H-cyclopenta[e][1,2,4] triazolo[4,3-a]pyridine-4-carboxamide] | > 50

Same assay, conditions: AhR-EGFP nuclear translocation in Jump-In T-REx HEK293 cells, 45 minutes incubation; numeric values; read-out: Rel EC50

Row | Structure (SMILES) | EC50 [nM]
12 | C[C@H]1CCc2c1cc(C(=O)Nc1ncccn1)c1nncn21 (single isomer, unassigned) [Example 8, 6-Methyl-N-(pyrimidin-2-yl)-7,8-dihydro-6H-cyclopenta[e][1,2,4]triazolo [4,3-a]pyridine-4-carboxamide] | 25.3
13 | CC1CCc2c1cc(C(=O)Nc1ncccn1)c1nccn21 (single isomer, unassigned) [Example 11, 6-Methyl-N-(pyrimidin-2-yl)-7,8-dihydro-6H-cyclopenta[e]imidazo[1,2-a]pyridine-4-carboxamide] | 1.58
